According to patent EP1123702A1, “ANALGESICS” (Eisai Co., Ltd., priority 1998, dated 2000):

What was measured:
[1] = test system: writhing behavior; test: Analgesic action by a writhing method using acetic acid; format: in vivo, Male mice of a ddY strain; details: sc; statistically minimum effective dose; 0.6% acetic acid ip 15 minutes after the drug, writhing counted for ten minutes; mice
[2] = biological target: 5HT2 (Homo sapiens, UniProt P28223); test: Serotonin (5HT) receptor binding action (RBA; in vitro), 5HT2; details: method of JP98/01481 or JP-A 10-281752
[3] = Muscle relaxing action (in vivo); details: method of JP98/01481 or JP-A 10-281752
From the text: There are also shown a serotonin (5HT) receptor binding action (RBA; in vitro) and a muscle relaxing action (in vivo) measured according to a method described in JP98/01481 or JP-A 10-281752. (In the table, "n.t." means "not tested").

[4] = biological target: T1, 5HT1A (Homo sapiens, UniProt P08908); test: Serotonin (5HT) receptor binding action (RBA; in vitro), 5HT1A; details: method of JP98/01481 or JP-A 10-281752
T1 sequence (P08908 1-422): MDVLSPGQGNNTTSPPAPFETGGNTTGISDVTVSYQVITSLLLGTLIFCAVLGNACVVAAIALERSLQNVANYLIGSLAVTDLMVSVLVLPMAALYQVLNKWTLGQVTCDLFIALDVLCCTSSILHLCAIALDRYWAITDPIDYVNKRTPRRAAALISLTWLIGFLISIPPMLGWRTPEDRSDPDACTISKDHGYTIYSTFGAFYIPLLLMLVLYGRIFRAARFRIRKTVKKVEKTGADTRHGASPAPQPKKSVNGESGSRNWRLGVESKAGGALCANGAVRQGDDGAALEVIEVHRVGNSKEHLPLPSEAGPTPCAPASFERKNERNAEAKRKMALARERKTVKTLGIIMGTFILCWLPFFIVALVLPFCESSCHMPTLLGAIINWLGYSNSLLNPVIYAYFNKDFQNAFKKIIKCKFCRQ

Chain of 5HT2 (P28223 whole entry, species assumed): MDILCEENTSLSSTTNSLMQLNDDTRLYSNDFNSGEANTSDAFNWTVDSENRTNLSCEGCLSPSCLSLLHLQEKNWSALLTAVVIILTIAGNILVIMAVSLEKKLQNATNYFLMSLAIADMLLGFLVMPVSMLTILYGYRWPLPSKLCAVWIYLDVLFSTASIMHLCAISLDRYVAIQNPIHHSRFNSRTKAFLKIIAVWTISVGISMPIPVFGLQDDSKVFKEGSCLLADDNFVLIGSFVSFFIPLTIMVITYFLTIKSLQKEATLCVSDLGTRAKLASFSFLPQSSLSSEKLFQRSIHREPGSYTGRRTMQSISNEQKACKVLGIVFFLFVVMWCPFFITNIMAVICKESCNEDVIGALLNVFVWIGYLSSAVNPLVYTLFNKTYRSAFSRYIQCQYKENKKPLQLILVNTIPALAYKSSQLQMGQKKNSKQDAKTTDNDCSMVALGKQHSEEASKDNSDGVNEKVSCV

SMILES	Analgesic Action (minimum effective dose) [1] [mg/kg]	Ki [2] [nM]	Muscle-Relaxing Action (ip) [3] [mg/kg]	Muscle-Relaxing Action (po) [3] [mg/kg]	Ki [4] [nM]
CCN1CCN(c2nc(-c3ccc(OCC(C)(C)O)cc3)cc3sccc23)CC1.Cl [(25), 4-(4-ethylpiperazin-1-yl)-6-[4-(2-hydroxy-2-methylpropoxy)phenyl]thieno[3,2-c]pyridine hydrochloride]	10	1.4	0.3	1	54.9
CCN1CCN(c2nc(-c3ccc(C(C)O)cc3)cc3sccc23)CC1.O=C(O)C(=O)O (centres unmarked) [(26), 4-(4-ethylpiperazin-1-yl)-6-[4-(1-hydroxyethyl)phenyl]thieno[3,2-c]pyridine oxalate]	1	16.9	–	< 3	15
CC(=O)NCc1ccc2ccn(C3CCN(CCc4ccccc4F)CC3)c2c1 [(4), 1-[1-(2-fluorophenethyl)piperidin-4-yl]-6-(N-acetylaminomethyl)indole]	3	0.75	–	10	1.58
CCC(O)c1ccc(-c2cc3ccccc3c(N3CCN(CC)CC3)n2)cc1 (centres unmarked) [(17), 1-(4-ethylpiperazin-1-yl)-3-[4-(1-hydroxypropyl)phenyl]isoquinoline]	1	1.6	1	10	6.9
NC(=O)Cc1ccc2ccn(C3CCN(CCc4ccccc4F)CC3)c2c1 [(13), 1-[1-(2-fluorophenethyl)piperidin-4-yl]-6-amidemethylindole]	3	2.81	1	3	0.59
